Test results from ChEMBL document CHEMBL5518185, “Design, synthesis and antitumor activity of 4-arylamine substituted pyrimidine derivatives as noncovalent EGFR inhibitors overcoming C797S mutation” (Eur J Med Chem, 2024).
Calls of active or inactive are those of the source. No cut-off for these calls is given here.

Columns and labels:
[1] = target: Tyrosine-protein kinase BTK (Homo sapiens) (UniProt Q06187); experiment: Inhibition of BTK (unknown origin) by HTRF assay relative to control; conditions: concentration not given here
Chain of Tyrosine-protein kinase BTK (Homo sapiens) (Q06187 whole entry): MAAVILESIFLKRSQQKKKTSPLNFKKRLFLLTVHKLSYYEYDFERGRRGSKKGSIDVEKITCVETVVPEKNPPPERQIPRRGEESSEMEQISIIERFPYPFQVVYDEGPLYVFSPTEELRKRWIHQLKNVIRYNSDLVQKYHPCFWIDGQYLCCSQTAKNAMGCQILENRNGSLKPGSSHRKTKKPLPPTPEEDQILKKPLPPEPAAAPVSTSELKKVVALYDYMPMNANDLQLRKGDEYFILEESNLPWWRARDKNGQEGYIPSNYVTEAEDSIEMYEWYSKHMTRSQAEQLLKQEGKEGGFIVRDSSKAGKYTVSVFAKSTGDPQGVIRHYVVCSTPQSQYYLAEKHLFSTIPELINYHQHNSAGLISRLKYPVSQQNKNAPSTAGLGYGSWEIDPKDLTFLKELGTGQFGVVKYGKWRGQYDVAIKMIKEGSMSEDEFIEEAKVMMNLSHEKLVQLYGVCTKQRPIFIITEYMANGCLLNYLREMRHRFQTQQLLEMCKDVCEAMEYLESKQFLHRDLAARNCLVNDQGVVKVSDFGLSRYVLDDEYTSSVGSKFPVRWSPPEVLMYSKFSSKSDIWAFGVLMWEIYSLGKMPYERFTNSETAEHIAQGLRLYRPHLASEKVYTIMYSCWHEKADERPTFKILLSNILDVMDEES

[2] = target: Mitogen-activated protein kinase; ERK1/ERK2 (Homo sapiens) (UniProt P27361+P28482); experiment: Inhibition of ERK1/2 phosphorylation (unknown origin) at 100 nM by Western blotting analysis; type: protein assay
Chain of Mitogen-activated protein kinase; ERK1/ERK2 (Homo sapiens) (P27361 whole entry, looked up): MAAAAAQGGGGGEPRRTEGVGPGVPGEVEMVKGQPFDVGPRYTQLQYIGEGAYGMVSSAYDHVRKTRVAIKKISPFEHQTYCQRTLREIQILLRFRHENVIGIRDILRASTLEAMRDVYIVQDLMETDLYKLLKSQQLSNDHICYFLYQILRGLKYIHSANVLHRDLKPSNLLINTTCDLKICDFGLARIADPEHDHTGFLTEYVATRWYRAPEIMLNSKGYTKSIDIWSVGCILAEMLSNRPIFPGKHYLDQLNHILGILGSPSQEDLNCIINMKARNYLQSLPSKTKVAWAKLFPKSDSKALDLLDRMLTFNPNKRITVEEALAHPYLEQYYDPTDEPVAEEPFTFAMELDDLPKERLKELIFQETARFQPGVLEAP
Chain of Mitogen-activated protein kinase; ERK1/ERK2 (Homo sapiens) (P28482 whole entry, looked up): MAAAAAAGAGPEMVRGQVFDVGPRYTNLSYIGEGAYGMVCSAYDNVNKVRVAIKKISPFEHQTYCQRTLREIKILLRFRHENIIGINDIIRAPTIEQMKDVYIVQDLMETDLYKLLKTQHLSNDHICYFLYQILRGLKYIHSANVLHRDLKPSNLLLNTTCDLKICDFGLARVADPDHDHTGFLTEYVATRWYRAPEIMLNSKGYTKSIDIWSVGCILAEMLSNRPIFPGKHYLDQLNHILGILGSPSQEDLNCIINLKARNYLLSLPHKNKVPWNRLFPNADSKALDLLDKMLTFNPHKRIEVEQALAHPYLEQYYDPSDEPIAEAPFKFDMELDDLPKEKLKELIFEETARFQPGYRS

[3] = target: Insulin-like growth factor 1 receptor (Homo sapiens) (UniProt P08069); experiment: Inhibition of IGF-1R (unknown origin) by HTRF assay relative to control; conditions: concentration not given here
[4] = target: Serine/threonine-protein kinase mTOR (Homo sapiens) (UniProt P42345); experiment: Inhibition of mTOR (unknown origin) by HTRF assay relative to control; conditions: concentration not given here
HCC827 [5] = experiment: Induction of cell cycle arrest in human HCC827 cells assessed as accumulation of cells at G0/G1 phase at 100 nM measured after 24 hrs by PI staining based flow cytometry analysis (reference value: 54.36%); type: functional
HCC827 [6] = experiment: Induction of apoptosis in human HCC827 cells assessed as early apoptotic cells at 10 nM measured after 24 hrs by annexin V/PI staining based flu cytometry analysis (reference value: 3.2%); type: functional
HCC827 [7] = experiment: Induction of apoptosis in human HCC827 cells assessed as necrotic cells at 10 nM measured after 24 hrs by annexin V/PI staining based flu cytometry analysis (reference value: 7.34%); type: functional
HCC827 [8] = experiment: Inhibition of colony formation in human HCC827 cells at 100 nM measured after 14 days by crystal violet staining based analysis relative to control; type: functional; conditions: HCC827, 336 h, time 14 day
[9] = Cytotoxicity against human 2BS cells assessed as inhibition of cell viability measured after 72 hrs by MTT assay; type: toxicity, cell-based
HCC827 [10] = experiment: Induction of apoptosis in human HCC827 cells assessed as late apoptotic cells at 10 nM measured after 24 hrs by annexin V/PI staining based flu cytometry analysis (reference value: 5.50%); type: functional
[11] = target: T1, Epidermal growth factor receptor (Homo sapiens, UniProt P00533); experiment: Inhibition of wild type EGFR (unknown origin) preincubated for 10 mins followed by substrate addition and measured after 50 mins in presence of ATP by HTRF assay
T1 sequence (P00533 whole entry): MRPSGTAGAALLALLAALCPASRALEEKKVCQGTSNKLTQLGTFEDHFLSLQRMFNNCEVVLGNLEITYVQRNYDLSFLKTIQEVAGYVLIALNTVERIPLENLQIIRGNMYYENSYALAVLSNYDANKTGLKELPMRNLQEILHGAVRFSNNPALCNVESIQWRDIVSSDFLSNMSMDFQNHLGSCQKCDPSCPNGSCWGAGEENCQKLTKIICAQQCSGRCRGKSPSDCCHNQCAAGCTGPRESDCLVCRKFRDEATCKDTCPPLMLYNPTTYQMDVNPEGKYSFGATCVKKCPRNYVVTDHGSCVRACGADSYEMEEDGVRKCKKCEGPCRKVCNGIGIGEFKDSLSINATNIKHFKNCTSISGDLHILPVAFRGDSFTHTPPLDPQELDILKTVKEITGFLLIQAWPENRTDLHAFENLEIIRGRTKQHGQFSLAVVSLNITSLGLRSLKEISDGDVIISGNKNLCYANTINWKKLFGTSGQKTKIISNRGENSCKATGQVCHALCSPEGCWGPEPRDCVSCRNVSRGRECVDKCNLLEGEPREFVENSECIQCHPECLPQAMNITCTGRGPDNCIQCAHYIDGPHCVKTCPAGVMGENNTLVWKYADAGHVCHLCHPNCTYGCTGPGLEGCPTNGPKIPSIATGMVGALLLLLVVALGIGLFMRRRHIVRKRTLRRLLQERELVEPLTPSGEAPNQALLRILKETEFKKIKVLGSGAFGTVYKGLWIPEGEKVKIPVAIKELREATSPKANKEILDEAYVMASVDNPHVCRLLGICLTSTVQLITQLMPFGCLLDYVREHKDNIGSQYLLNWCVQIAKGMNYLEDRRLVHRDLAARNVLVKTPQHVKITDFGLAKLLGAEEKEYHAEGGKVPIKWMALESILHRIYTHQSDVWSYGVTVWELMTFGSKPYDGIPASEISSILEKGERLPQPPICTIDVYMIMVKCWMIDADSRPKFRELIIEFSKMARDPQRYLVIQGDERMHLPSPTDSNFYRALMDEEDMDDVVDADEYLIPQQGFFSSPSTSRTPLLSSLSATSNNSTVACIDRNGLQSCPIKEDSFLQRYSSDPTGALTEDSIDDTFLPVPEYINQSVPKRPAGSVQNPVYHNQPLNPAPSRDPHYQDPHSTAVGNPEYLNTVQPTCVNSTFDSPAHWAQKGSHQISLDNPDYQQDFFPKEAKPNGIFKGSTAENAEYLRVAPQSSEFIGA

[12] = system: Epidermal growth factor receptor (Homo sapiens), P00533 [UNDEFINED MUTATION]; conditions: dose 30.0 nM
HCC827 [13] = experiment: Induction of cell cycle arrest in human HCC827 cells assessed as accumulation of cells at G2/M phase at 10 nM measured after 24 hrs by PI staining based flow cytometry analysis (reference value: 16.83%); type: functional
HCC827 [14] = experiment: Induction of apoptosis in human HCC827 cells assessed as viable cells at 30 nM measured after 24 hrs by annexin V/PI staining based flu cytometry analysis (reference value: 84.0%); type: functional; conditions: read-out: Activity
[15] = target: Mast/stem cell growth factor receptor Kit (Homo sapiens) (UniProt P10721); experiment: Inhibition of c-kit (unknown origin) by HTRF assay relative to control; conditions: concentration not given here
Chain of Mast/stem cell growth factor receptor Kit (Homo sapiens) (P10721 whole entry): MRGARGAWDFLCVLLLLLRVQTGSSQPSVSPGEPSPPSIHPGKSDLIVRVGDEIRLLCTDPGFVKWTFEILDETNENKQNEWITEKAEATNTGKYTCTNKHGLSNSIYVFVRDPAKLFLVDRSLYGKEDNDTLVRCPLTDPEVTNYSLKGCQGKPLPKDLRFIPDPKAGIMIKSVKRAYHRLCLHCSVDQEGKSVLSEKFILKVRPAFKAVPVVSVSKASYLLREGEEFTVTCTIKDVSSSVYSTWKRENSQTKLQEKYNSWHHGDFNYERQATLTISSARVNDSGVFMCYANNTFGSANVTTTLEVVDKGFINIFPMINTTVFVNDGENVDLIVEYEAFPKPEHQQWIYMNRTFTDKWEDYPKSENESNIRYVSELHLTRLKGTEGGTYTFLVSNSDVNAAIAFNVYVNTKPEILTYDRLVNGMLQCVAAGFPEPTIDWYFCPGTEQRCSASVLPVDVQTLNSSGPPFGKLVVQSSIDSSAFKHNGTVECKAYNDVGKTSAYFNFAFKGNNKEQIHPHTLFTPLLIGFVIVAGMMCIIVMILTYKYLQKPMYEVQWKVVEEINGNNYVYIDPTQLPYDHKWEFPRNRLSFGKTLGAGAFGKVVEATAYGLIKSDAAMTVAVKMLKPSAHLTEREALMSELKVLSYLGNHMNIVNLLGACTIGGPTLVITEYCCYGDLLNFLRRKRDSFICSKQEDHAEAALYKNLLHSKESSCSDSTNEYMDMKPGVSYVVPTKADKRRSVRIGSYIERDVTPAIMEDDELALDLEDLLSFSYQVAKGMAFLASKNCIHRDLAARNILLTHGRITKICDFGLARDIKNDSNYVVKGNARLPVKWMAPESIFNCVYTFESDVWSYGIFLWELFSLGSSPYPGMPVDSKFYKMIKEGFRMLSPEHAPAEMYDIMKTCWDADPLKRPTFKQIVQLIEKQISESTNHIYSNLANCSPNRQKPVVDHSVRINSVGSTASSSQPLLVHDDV

[16] = Toxicity in BALB/c nude mouse assessed as drug tolerability at 10 to 50 mg/kg/day, po measured every three days for 21 days; type: organism-based; conditions: in vivo, 504 h, dose 10-50 mg/kg/day, time 21 day
HCC827 [17] = experiment: Antitumor activity against human HCC827 cells xenografted in BALB/c nude mouse assessed as tumor growth inhibition at 50 mg/kg/day, po measured every three days for 21 days by vernier caliper based analysis relative to control; type: functional; conditions: HCC827, 504 h, time 21 day, read-out: TGI
A549 = experiment: Antiproliferative activity against human A549 cells assessed as inhibition of cell growth measured after 72 hrs by MTT assay; type: functional, cell-based; conditions: A549, 72 h
HCC827 [18] = experiment: Induction of cell cycle arrest in human HCC827 cells assessed as accumulation of cells at S phase at 100 nM measured after 24 hrs by PI staining based flow cytometry analysis (reference value: 28.81%); type: functional
[19] = target: Epidermal growth factor receptor (Homo sapiens, UniProt P00533, EX19DEL/T790M); experiment: Inhibition of EGFR Del19/T790M (unknown origin) preincubated for 10 mins followed by substrate addition and measured after 50 mins in presence of ATP by HTRF assay
HCC827 [20] = experiment: Induction of cell cycle arrest in human HCC827 cells assessed as accumulation of cells at S phase at 10 nM measured after 24 hrs by PI staining based flow cytometry analysis (reference value: 28.81%); type: functional
Homo sapiens [21] = organism: Homo sapiens; experiment: Inhibition of Akt (unknown origin) by HTRF assay relative to control; conditions: concentration not given here
Homo sapiens [22] = organism: Homo sapiens; experiment: Inhibition of FGFR (unknown origin) by HTRF assay relative to control; conditions: concentration not given here
[23] = Cytotoxicity against human L02 cells assessed as inhibition of cell viability measured after 72 hrs by MTT assay; type: toxicity, cell-based
[24] = target: Epidermal growth factor receptor (Homo sapiens, UniProt P00533, L858R/T790M); experiment: Inhibition of EGFR L858R/T790M (unknown origin) preincubated for 10 mins followed by substrate addition and measured after 50 mins in presence of ATP by HTRF assay
HCC827 [25] = experiment: Induction of cell cycle arrest in human HCC827 cells assessed as accumulation of cells at G2/M phase at 100 nM measured after 24 hrs by PI staining based flow cytometry analysis (reference value: 16.83%); type: functional
[26] = Inhibition of ERK (unknown origin) by HTRF assay relative to control; conditions: Homo sapiens; concentration not given here
[27] = Toxicity in BALB/c nude mouse assessed as animal death at 10 to 50 mg/kg/day, po measured every three days for 21 days; type: organism-based; conditions: in vivo, 504 h, dose 10-50 mg/kg/day, time 21 day
HCC827 [28] = experiment: Induction of cell cycle arrest in human HCC827 cells assessed as accumulation of cells at G2/M phase at 30 nM measured after 24 hrs by PI staining based flow cytometry analysis (reference value: 16.83%); type: functional
HCC827 [29] = experiment: Antiproliferative activity against human HCC827 cells assessed as inhibition of cell growth measured after 72 hrs by MTT assay; type: functional, cell-based; conditions: HCC827, 72 h
HCC827 [30] = experiment: Induction of apoptosis in human HCC827 cells assessed as necrotic cells at 30 nM measured after 24 hrs by annexin V/PI staining based flu cytometry analysis (reference value: 7.34%); type: functional
Homo sapiens [31] = organism: Homo sapiens; experiment: Inhibition of AKT phosphorylation (unknown origin) at 100 nM by Western blotting analysis
[32] = Toxicity in BALB/c nude mouse assessed as effect on body weight loss at 10 to 50 mg/kg/day, po measured every three days for 21 days; type: organism-based; conditions: in vivo, 504 h, dose 10-50 mg/kg/day, time 21 day
[33] = target: T1, Epidermal growth factor receptor; conditions: dose 100.0 nM
Description: Inhibition of EGFR phosphorylation (unknown origin) at 100 nM by Western blotting analysis

[34] = target: RAF proto-oncogene serine/threonine-protein kinase (Homo sapiens) (UniProt P04049); experiment: Inhibition of c-RAF (unknown origin) by HTRF assay relative to control; conditions: concentration not given here
Chain of RAF proto-oncogene serine/threonine-protein kinase (Homo sapiens) (P04049 whole entry): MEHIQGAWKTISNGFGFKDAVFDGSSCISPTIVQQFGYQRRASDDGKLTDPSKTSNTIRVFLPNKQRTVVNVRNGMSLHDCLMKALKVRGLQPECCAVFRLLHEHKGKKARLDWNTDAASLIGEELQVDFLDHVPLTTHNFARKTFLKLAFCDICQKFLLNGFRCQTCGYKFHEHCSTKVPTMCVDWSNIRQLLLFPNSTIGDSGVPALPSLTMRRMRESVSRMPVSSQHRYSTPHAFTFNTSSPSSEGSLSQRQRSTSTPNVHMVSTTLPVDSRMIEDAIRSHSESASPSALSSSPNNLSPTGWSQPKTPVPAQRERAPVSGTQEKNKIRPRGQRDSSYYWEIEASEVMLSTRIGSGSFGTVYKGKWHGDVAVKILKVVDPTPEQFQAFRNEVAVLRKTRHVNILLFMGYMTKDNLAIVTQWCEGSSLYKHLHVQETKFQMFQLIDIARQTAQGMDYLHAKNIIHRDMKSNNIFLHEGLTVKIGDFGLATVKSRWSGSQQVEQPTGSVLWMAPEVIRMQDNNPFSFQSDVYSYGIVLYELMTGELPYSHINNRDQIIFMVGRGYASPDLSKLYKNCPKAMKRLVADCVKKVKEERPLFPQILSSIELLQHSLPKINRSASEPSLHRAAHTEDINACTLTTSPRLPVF

HCC827 [35] = experiment: Induction of apoptosis in human HCC827 cells assessed as viable cells at 10 nM measured after 24 hrs by annexin V/PI staining based flu cytometry analysis (reference value: 84.0%); type: functional; conditions: read-out: Activity

Question: What does the source list for `O=C(NO)c1sccc1Nc1nc(Nc2ccc(N3CCOCC3)cc2)ncc1Cl`?
Answer: inhibition [1]: < 70%; inhibition [2]: Active; inhibition [3]: < 70%; inhibition [4]: < 70%; Activity (HCC827 [5]): 44.23%; Activity (HCC827 [6]): 9.96%; Activity (HCC827 [7]): 6.5%; inhibition at 0.1 µM (HCC827 [8]): 100%; IC50 at 72 h [9]: 24600 nM; Activity (HCC827 [10]): 6.53%; IC50 [11]: 16.2 nM; inhibition [12]: 61.9%; Activity (HCC827 [13]): 17.56%; viability at 0.03 µM (HCC827 [14]): 70.7%; inhibition [15]: < 70%; Activity [16]: Non-Toxic; inhibition in vivo at 50 mg/kg/day (HCC827 [17]): 89.5%; IC50 (A549): 703 nM; Activity (HCC827 [18]): 9.64%; IC50 [19]: 214 nM; Activity (HCC827 [20]): 16.41%; inhibition (Homo sapiens [21]): < 70%; inhibition (Homo sapiens [22]): < 70%; IC50 at 72 h [23]: 2450 nM; IC50 [24]: 43.9 nM; Activity (HCC827 [25]): 46.13%; inhibition [26]: < 70%; Activity [27]: Non-Toxic; Activity (HCC827 [28]): 19.06%; IC50 (HCC827 [29]): 25 nM; Activity (HCC827 [30]): 7.64%; inhibition (Homo sapiens [31]): Active; Activity [32]: Non-Toxic; inhibition [33]: Active; inhibition [34]: < 70%; viability at 0.01 µM (HCC827 [35]): 77.6%
